#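 GI50: concentration for 50% inhibition of growth. TGI: concentration producing complete growth inhibition.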
# Legend:
# Experiment in all cases: inhibition of tumour cell growth, NCI panel, 384-well format
# [1] = test system: OVCAR-3 ovarian
# [2] = test system: HOP-62 NSCLC
# [3] = test system: SK-MEL-5 melanoma
# [4] = test system: SF-268 CNS
# [5] = test system: HCC-2998 colon
# [6] = test system: LOX IMVI melanoma
# [7] = test system: COLO 205 colon
# [8] = test system: HL-60(TB) leukemia
# [9] = test system: NCI/ADR-RES ovarian
# [10] = test system: HOP-92 NSCLC
# [11] = test system: SK-MEL-2 melanoma
# [12] = test system: SW-620 colon
# [13] = test system: MOLT-4 leukemia
# [14] = test system: SNB-19 CNS
# [15] = test system: U251 glioblastoma
# [16] = test system: SK-MEL-28 melanoma
# [17] = test system: M14 melanoma
# [18] = test system: SN12C renal
# [19] = test system: HT29 colon
# [20] = test system: BT-549 breast
# [21] = test system: SK-OV-3 ovarian
# [22] = test system: HS 578T breast
# [23] = test system: NCI-H460 NSCLC
# [24] = test system: EKVX NSCLC
# [25] = test system: MCF7 breast
# [26] = test system: ACHN renal
# [27] = test system: NCI-H23 lung
# [28] = test system: RPMI-8226 leukemia
# [29] = test system: T-47D breast
# [30] = test system: KM12 colon
# [31] = test system: TK-10 renal
# [32] = test system: UO-31 renal
# [33] = test system: IGROV1 ovarian
# [34] = test system: SR leukemia
# [35] = test system: RXF 393 renal
# [36] = test system: UACC-62 melanoma
# [37] = test system: SF-539 CNS
# [38] = test system: MDA-MB-435 melanoma
# [39] = test system: NCI-H226 lung
# [40] = test system: 786-0 renal
# [41] = test system: OVCAR-8 ovarian
# [42] = test system: NCI-H522 lung
# [43] = test system: NCI-H322M lung
# [44] = test system: HCT-15 colon
# [45] = test system: DU-145 prostate
# [46] = test system: OVCAR-5 ovarian
# [47] = test system: OVCAR-4 ovarian
smiles,measurement,setting,value
C[C@@H](Nc1nc(N[C@H](C)C(F)(F)F)nc(-c2cccc(Cl)n2)n1)C(F)(F)F,GI50,[1],28.8 µM
same,TGI,[1],> 100 µM
same,GI50,[2],28.5 µM
same,TGI,[2],> 65.4 µM
same,GI50,[3],28.2 µM
same,TGI,[3],> 100 µM
same,GI50,[4],39.6 µM
same,TGI,[4],> 100 µM
same,GI50,[5],> 80.1 µM
same,TGI,[5],> 100 µM
same,GI50,[6],> 100 µM
same,TGI,[6],> 100 µM
same,GI50,[7],> 100 µM
same,TGI,[7],> 100 µM
same,GI50,[8],> 85.3 µM
same,TGI,[8],> 100 µM
same,GI50,[9],> 82.3 µM
same,TGI,[9],> 100 µM
same,GI50,[10],43 µM
same,TGI,[10],> 100 µM
same,GI50,[11],14.6 µM
same,TGI,[11],30.2 µM
same,GI50,[12],> 49.5 µM
same,TGI,[12],> 70.6 µM
same,GI50,[13],> 100 µM
same,TGI,[13],> 100 µM
same,GI50,[14],> 82.4 µM
same,TGI,[14],> 100 µM
same,GI50,[15],40 µM
same,TGI,[15],> 100 µM
same,GI50,[16],> 100 µM
same,TGI,[16],> 100 µM
same,GI50,[17],> 100 µM
same,TGI,[17],> 100 µM
same,GI50,[18],> 62.6 µM
same,TGI,[18],> 100 µM
same,GI50,[19],> 100 µM
same,TGI,[19],> 100 µM
same,GI50,[20],32.5 µM
same,TGI,[20],> 70.3 µM
same,GI50,[21],> 100 µM
same,TGI,[21],> 100 µM
same,GI50,[22],21.1 µM
same,TGI,[22],63.2 µM
same,GI50,[23],36.4 µM
same,TGI,[23],> 100 µM
same,GI50,[24],> 100 µM
same,TGI,[24],> 100 µM
same,GI50,[25],14.5 µM
same,TGI,[25],> 100 µM
same,GI50,[26],> 100 µM
same,TGI,[26],> 100 µM
same,GI50,[27],> 49.9 µM
same,TGI,[27],> 89.7 µM
same,GI50,[28],> 75.8 µM
same,TGI,[28],> 100 µM
same,GI50,[29],> 84.3 µM
same,TGI,[29],> 100 µM
same,GI50,[30],> 91.7 µM
same,TGI,[30],> 100 µM
same,GI50,[31],> 52.4 µM
same,TGI,[31],> 90.1 µM
same,GI50,[32],> 100 µM
same,TGI,[32],> 100 µM
same,GI50,[33],> 100 µM
same,TGI,[33],> 100 µM
same,GI50,[34],> 77.3 µM
same,TGI,[34],> 100 µM
same,GI50,[35],24.2 µM
same,TGI,[35],58.8 µM
same,GI50,[36],38.6 µM
same,TGI,[36],> 76.9 µM
same,GI50,[37],> 69.1 µM
same,TGI,[37],> 100 µM
same,GI50,[38],> 77.9 µM
same,TGI,[38],> 100 µM
same,GI50,[39],84.7 µM
same,TGI,[39],> 100 µM
same,GI50,[40],33.2 µM
same,TGI,[40],> 76.3 µM
same,GI50,[41],47.2 µM
same,TGI,[41],> 100 µM
same,GI50,[42],> 100 µM
same,TGI,[42],> 100 µM
same,GI50,[43],> 100 µM
same,TGI,[43],> 100 µM
same,GI50,[44],> 100 µM
same,TGI,[44],> 100 µM
same,GI50,[45],34.1 µM
same,TGI,[45],> 100 µM
same,GI50,[46],> 100 µM
same,TGI,[46],> 100 µM
same,GI50,[47],21.7 µM
same,TGI,[47],55 µM
Cc1cc(F)c(C(=O)Nc2cccc(-c3nncn3C(C)C)n2)cc1-n1cnc(C2CC2)c1,GI50,[1],14.7 µM
same,TGI,[1],41.1 µM
same,GI50,[2],8.04 µM
same,TGI,[2],29.3 µM
same,GI50,[3],6.96 µM
same,TGI,[3],19.3 µM
same,GI50,[4],15 µM
same,TGI,[4],47.7 µM
same,GI50,[5],16.7 µM
same,TGI,[5],57.2 µM
same,GI50,[6],13.7 µM
same,TGI,[6],28.9 µM
same,GI50,[7],3.83 µM
same,TGI,[7],12.4 µM
same,GI50,[8],6.26 µM
same,TGI,[8],18.3 µM
same,GI50,[9],11.1 µM
same,TGI,[9],23.6 µM
same,GI50,[10],17.7 µM
same,TGI,[10],> 82.9 µM
same,GI50,[11],19.9 µM
same,TGI,[11],35.5 µM
same,GI50,[12],13.9 µM
same,TGI,[12],32.3 µM
same,GI50,[13],5.69 µM
same,TGI,[13],18.1 µM
same,GI50,[14],22.6 µM
same,TGI,[14],> 100 µM
same,GI50,[15],11.9 µM
same,TGI,[15],> 81.6 µM
same,GI50,[16],17.8 µM
same,TGI,[16],35 µM
same,GI50,[17],14.5 µM
same,TGI,[17],28.7 µM
same,GI50,[18],19.4 µM
same,TGI,[18],> 93.6 µM
same,GI50,[19],22 µM
same,TGI,[19],> 94.4 µM
same,GI50,[20],11.2 µM
same,TGI,[20],23.6 µM
same,GI50,[21],17.4 µM
same,TGI,[21],38.6 µM
same,GI50,[22],8.3 µM
same,TGI,[22],35.2 µM
same,GI50,[23],12.9 µM
same,TGI,[23],43 µM
same,GI50,[24],5.8 µM
same,TGI,[24],22.1 µM
same,GI50,[25],12.3 µM
same,TGI,[25],25.9 µM
same,GI50,[26],11.5 µM
same,TGI,[26],34.8 µM
same,GI50,[27],4.62 µM
same,TGI,[27],16.8 µM
same,GI50,[28],2.09 µM
same,TGI,[28],5.9 µM
same,GI50,[29],3.42 µM
same,TGI,[29],14.6 µM
same,GI50,[30],15.6 µM
same,TGI,[30],30.6 µM
same,GI50,[31],14.8 µM
same,TGI,[31],> 68.2 µM
same,GI50,[32],10.4 µM
same,TGI,[32],23.7 µM
same,GI50,[33],9.78 µM
same,TGI,[33],40.5 µM
same,GI50,[34],3.62 µM
same,TGI,[34],11.2 µM
same,GI50,[35],10.3 µM
same,TGI,[35],25.2 µM
same,GI50,[36],12.9 µM
same,TGI,[36],25.9 µM
same,GI50,[37],14.5 µM
same,TGI,[37],42.6 µM
same,GI50,[38],13.2 µM
same,TGI,[38],30 µM
same,GI50,[39],12.6 µM
same,TGI,[39],31.4 µM
same,GI50,[40],15 µM
same,TGI,[40],40.4 µM
same,GI50,[41],12 µM
same,TGI,[41],25.6 µM
same,GI50,[42],3.31 µM
same,TGI,[42],13.7 µM
same,GI50,[43],18.8 µM
same,TGI,[43],44.6 µM
same,GI50,[44],17.6 µM
same,TGI,[44],45.3 µM
same,GI50,[45],6.87 µM
same,TGI,[45],27.8 µM
same,GI50,[46],23.9 µM
same,TGI,[46],> 80.5 µM
same,GI50,[47],17.2 µM
same,TGI,[47],38.5 µM

# Source: PubChem BioAssay (NCI)
